Experimental data from patent publication US20090005309A1, “SUBSTITUTED PIPERIDINES” (AUSPEX PHARMACEUTICALS, INC., priority 2007, published 2009).
Like-named read-outs stand apart in the source and are kept apart here.

How the values were obtained:
CYP2C19 = CYP2C19 (Homo sapiens, UniProt P33261); assay: In vitro inhibition of human cytochrome P450 CYP2C19 (fluorometric, 3-cyano-7-ethoxycoumarin substrate)
Experimental: (§1) In Vitro Inhibition of Human Cytochrome P450 Enzymes
(§2) Solution A: NADPH-Regenerating System
To a glass tube on ice were added sequentially: Water (8 mL) in NADP+ (20 mg), glucose-6-phosphate (20 mg), magnesium chloride hexahydrate (13.3 mg) and glucose-6-phosphate dehydrogenase (60 units).
Solution A was transferred to a 96-well black plate (80 microliter per well), followed by various concentrations of a solution of paroxetine in 20% acetonitrile-water (20 microliter per well). The reaction was initiated by adding 100 microliter of solution B to each well of the 96-well plate. The plate was incubated for 30 minutes at 37° C. in the dark. The reaction was stopped by adding 75 microliter of stop buffer (4:1 acetonitrile-0.5 M Tris base) to each well, and the end point was measured in a fluorometer plate reader at λex=409 nm and λem=460 nm.

CYP2D6 = CYP2D6 (Homo sapiens, UniProt P10635); assay: In vitro inhibition of human cytochrome P450 CYP2D6 (fluorometric, 3-[2-(N,N diethyl-N-methylamino)ethyl]-7-methoxy-4-methylcoumarin substrate); assay type: in vitro ADME; conditions: for IC50: 40 minutes at 37° C.; for times the amount of compound needed to inhibit CYP2D6 than non-isotopically enriched zamifenacin: ratio versus non-isotopically enriched zamifenacin (IC50 0.33 μM)
Experimental: as §1, §2
The plate was incubated for 40 minutes at 37° C. in the dark.

[1] = read-out: IC50 for inhibition of CYP2D6

Sequence of CYP2C19 (P33261 whole entry): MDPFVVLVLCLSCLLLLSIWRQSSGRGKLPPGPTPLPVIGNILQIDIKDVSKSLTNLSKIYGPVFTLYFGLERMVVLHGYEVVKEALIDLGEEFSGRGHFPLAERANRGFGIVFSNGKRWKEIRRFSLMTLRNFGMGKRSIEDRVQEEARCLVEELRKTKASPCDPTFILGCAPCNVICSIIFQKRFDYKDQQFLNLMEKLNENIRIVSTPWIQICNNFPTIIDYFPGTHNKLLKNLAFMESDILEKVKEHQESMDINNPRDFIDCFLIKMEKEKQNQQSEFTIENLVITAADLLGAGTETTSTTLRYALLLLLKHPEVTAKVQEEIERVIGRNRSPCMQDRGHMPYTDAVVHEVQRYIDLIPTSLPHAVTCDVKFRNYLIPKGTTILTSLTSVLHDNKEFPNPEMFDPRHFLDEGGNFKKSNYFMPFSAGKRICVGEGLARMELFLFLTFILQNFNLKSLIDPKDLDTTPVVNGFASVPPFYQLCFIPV
Sequence of CYP2D6 (P10635 whole entry): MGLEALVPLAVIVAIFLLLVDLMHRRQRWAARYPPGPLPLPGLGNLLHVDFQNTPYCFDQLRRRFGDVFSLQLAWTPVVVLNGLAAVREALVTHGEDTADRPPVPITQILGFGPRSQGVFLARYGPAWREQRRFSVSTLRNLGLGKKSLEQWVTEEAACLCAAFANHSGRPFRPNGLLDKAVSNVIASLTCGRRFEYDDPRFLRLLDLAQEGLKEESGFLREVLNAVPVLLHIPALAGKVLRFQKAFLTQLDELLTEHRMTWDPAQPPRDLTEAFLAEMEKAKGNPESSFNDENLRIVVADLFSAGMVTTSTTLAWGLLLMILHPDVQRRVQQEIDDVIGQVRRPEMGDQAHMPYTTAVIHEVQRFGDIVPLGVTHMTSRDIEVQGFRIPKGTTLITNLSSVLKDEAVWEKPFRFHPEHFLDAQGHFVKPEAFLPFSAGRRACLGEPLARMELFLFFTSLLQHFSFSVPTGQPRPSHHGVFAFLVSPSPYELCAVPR

| IC50 (CYP2C19) | IC50 (CYP2D6; [1]) | times the amount of compound needed to inhibit CYP2D6 than non-isotopically enriched zamifenacin (CYP2D6) | IC50 (CYP2D6; positive control, read-out: IC50 for inhibition of CYP2D6 (positive control)) | Compound |
| --- | --- | --- | --- | --- |
| 4 µM | – | – | – | [2H]C([2H])(c1ccc2c(c1)OCO2)C([2H])([2H])N1CCCC(OC(c2ccccc2)c2ccccc2)C1 (stereo not shown) [Example 2, d4-3-Benzhydryloxy-1-(2-benzo[1,3]dioxol-5-yl-ethyl)-piperidine] |
| 5.1 µM | 400 nM | 1.2 times | – | [2H]C1([2H])Oc2ccc(CCN3CCCC(OC(c4ccccc4)c4ccccc4)C3)cc2O1 (stereo not shown) [Example 3, d2-3-Benzhydryloxy-1-(2-benzo[1,3]dioxol-5-yl-ethyl)-piperidine] |
| 5.3 µM | 420 nM | 1.3 times | – | [2H]C1([2H])Oc2ccc(C([2H])([2H])C([2H])([2H])N3CCCC(OC(c4ccccc4)c4ccccc4)C3)cc2O1 (stereo not shown) [Example 4, d6-3-Benzhydryloxy-1-(2-benzo[1,3]dioxol-5-yl-ethyl)-piperidine] |
| – | – | – | 14.5 nM | Cc1nc2c([nH]1)c(=O)n(C)c(=O)n2Cc1ccco1 [Furafylline, reference compound] |
| 3.6 µM | 330 nM | – | – | c1ccc(C(OC2CCCN(CCc3ccc4c(c3)OCO4)C2)c2ccccc2)cc1 (stereo not shown) [zamifenacin, 3-benzhydryloxy-1-(2-benzo[1,3]dioxol-5-yl-ethyl)-piperidine, reference compound] |
